# Measurements as given in patent US20070004660A1, “Synergistic Modulation of Flt3 Kinase Using Alkylquinolines and Alkylquinazolines” (priority 2005, published 2007).
# pIC50: −log10 of the molar value.
# Target: T1, wild-type FLT3 receptor (Homo sapiens, UniProt P36888)
# T1 construct: host or cells: Baf3 (murine B cell lymphoma line), stably transfected
# T1 sequence (P36888 27-993): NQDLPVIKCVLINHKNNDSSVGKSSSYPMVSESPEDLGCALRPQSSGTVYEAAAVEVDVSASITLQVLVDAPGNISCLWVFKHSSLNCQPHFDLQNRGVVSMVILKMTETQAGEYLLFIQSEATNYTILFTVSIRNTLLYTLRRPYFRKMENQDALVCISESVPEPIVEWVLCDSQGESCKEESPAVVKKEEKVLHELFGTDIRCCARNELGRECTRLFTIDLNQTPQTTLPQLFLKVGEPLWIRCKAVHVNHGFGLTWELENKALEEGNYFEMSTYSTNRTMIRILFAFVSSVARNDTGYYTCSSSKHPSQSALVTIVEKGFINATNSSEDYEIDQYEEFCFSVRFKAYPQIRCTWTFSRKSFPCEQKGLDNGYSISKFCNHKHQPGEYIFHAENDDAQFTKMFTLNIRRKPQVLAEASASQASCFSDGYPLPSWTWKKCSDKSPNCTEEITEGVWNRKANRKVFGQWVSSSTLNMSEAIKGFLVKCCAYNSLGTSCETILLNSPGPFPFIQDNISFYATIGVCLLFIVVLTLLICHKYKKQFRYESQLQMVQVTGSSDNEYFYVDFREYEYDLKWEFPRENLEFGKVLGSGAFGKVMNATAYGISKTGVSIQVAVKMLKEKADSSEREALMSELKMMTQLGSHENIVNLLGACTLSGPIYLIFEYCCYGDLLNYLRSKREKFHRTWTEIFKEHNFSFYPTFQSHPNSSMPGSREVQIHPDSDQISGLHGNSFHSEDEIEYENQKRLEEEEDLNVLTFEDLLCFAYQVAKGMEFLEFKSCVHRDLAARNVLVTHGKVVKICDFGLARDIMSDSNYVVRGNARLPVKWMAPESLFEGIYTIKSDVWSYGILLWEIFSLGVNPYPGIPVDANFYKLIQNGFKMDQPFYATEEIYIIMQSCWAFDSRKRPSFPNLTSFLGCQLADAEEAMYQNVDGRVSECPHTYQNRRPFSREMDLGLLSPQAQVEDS
# Assay: Cell-based FLT3 receptor ELISA (FLT ligand-induced phosphorylation in Baf3 FLT3 cells)
# Conditions: 100 ng/mL Flt ligand, uncertainty ±20%
# How it was run: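 Receptor phosphotyrosine measured by sandwich ELISA (anti-FLT3 capture, HRP anti-pTyr, luminescence) in FLT3-transfected murine Baf3 cells given 1 h compound pretreatment and 10 min 100 ng/mL FLT ligand after overnight low-serum starvation; triplicates, IC50 from nonlinear regression.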
row,Compound,pIC50
1,"O=C(Nc1ccc(N2CCCC2)cc1)N1CCC(c2ncnc3cc(NCCO)ccc23)CC1 [Example 175, 4-[7-(2-Hydroxy-ethylamino)-quinazolin-4-yl]-piperidine-1-carboxylic acid (4-pyrrolidin-1-yl-phenyl)-amide]",8.22
2,"O=C(Nc1ccc(N2CCOCC2)cc1)N1CCC(c2ncnc3cc(N4CCC[C@@H]4CO)ccc23)CC1 [Example 132, (R)-4-[7-(2-Hydroxymethyl-pyrrolidin-1-yl)-quinazolin-4-yl]-piperidine-1-carboxylic acid (4-morpholin-4-yl-phenyl)-amide]",7.57
3,"CN1CCN(CCCOc2ccc3c(C4CCN(C(=O)Nc5ccc(N6CCCC6)cc5)CC4)ncnc3c2)CC1 [Example 158, 4-{7-[3-(4-Methyl-piperazin-1-yl)-propoxy]-quinazolin-4-yl}-piperidine-1-carboxylic acid (4-pyrrolidin-1-yl-phenyl)-amide]",9.40
4,"COc1cc2ncnc(C3CCN(C(=O)Nc4ccc(C5CCCCC5)cc4)CC3)c2cc1OC [Example 21, 4-(6,7-Dimethoxy-quinazolin-4-yl)-piperidine-1-carboxylic acid (4-cyclohexyl-phenyl)-amide]",8.70
5,"CN1CCN(CCOc2ccc3c(C4CCN(C(=O)Nc5ccc(N6CCCC6)cc5)CC4)ncnc3c2)CC1 [Example 157, 4-{7-[2-(4-Methyl-piperazin-1-yl)-ethoxy]-quinazolin-4-yl}-piperidine-1-carboxylic acid (4-pyrrolidin-1-yl-phenyl)-amide]",7.80
6,"O=C(Nc1ccc(N2CCOCC2)cc1)N1CCC(c2ncnc3cc(N4CCNC4=O)ccc23)CC1 [Compound 197, 4-[7-(2-Oxo-imidazolidin-1-yl)-quinazolin-4-yl]-piperidine-1-carboxylic acid (4-morpholin-4-yl-phenyl)-amide]",7.11
7,"CC(=O)N1CCN(c2ccc3c(C4CCN(C(=O)Nc5ccc(N6CCOCC6)cc5)CC4)ncnc3c2)CC1 [Example 141, 4-[7-(4-Acetyl-piperazin-1-yl)-quinazolin-4-yl]-piperidine-1-carboxylic acid (4-morpholin-4-yl-phenyl)-amide]",8.70
8,"O=C(Nc1ccc(N2CCCC2)cc1)N1CCC(c2ncnc3cc(O[C@H]4CCOC4)ccc23)CC1 [Compound 190, (S)-4-[7-(Tetrahydro-furan-3-yloxy)-quinazolin-4-yl]-piperidine-1-carboxylic acid (4-pyrrolidin-1-yl-phenyl)-amide]",6.96
9,"O=C(Nc1ccc(N2CCCC2)cc1)N1CCC(c2ncnc3cc(OCCO)ccc23)CC1 [Example 169, 4-[7-(2-Hydroxy-ethoxy)-quinazolin-4-yl]-piperidine-1-carboxylic acid (4-pyrrolidin-1-yl-phenyl)-amide]",8.70
10,"COc1cc2ncnc(C3CCN(C(=O)Nc4ccc(N5CCCCC5)cc4)CC3)c2cc1OC [Example 19, 4-(6,7-Dimethoxy-quinazolin-4-yl)-piperidine-1-carboxylic acid (4-piperidin-1-yl-phenyl)-amide]",7.77
11,"CC(=O)N1CC[C@@H](Oc2ccc3c(C4CCN(C(=O)Nc5ccc(N6CCCC6)cc5)CC4)ncnc3c2)C1 [Example 154, (R)-4-[7-(1-Acetyl-pyrrolidin-3-yloxy)-quinazolin-4-yl]-piperidine-1-carboxylic acid (4-pyrrolidin-1-yl-phenyl)-amide]",8.70
12,"CN(C)C(=O)N1CCN(c2ccc3c(C4CCN(C(=O)Nc5ccc(N6CCOCC6)cc5)CC4)ncnc3c2)CC1 [Example 143, 4-{4-[1-(4-Morpholin-4-yl-phenylcarbamoyl)-piperidin-4-yl]-quinazolin-7-yl}-piperazine-1-carboxylic acid dimethylamide]",9.00
13,"CCN(CC)CCCOc1ccc2c(C3CCN(C(=O)Nc4ccc(N5CCOCC5)cc4)CC3)ncnc2c1 [Example 134, 4-[7-(3-Diethylamino-propoxy)-quinazolin-4-yl]-piperidine-1-carboxylic acid (4-morpholin-4-yl-phenyl)-amide]",7.51
14,"CC(C)c1ccc(NC(=O)CN2CCC(c3ncnc4ccccc34)CC2)cc1 [Example 16, N-(4-Isopropyl-phenyl)-2-(4-quinazolin-4-yl-piperidin-1-yl)-acetamide]",6.47
15,"CN1CCN(c2ccc3c(C4CCN(C(=O)Nc5ccc(N6CCCC6)nc5)CC4)ncnc3c2)CC1 [Example 160, 4-[7-(4-Methyl-piperazin-1-yl)-quinazolin-4-yl]-piperidine-1-carboxylic acid (6-pyrrolidin-1-yl-pyridin-3-yl)-amide]",7.96
16,"CN(C)C(=O)N1CCN(CCCOc2ccc3c(C4CCN(C(=O)Nc5ccc(N6CCCC6)cc5)CC4)ncnc3c2)CC1 [Example 165, 4-(3-{4-[1-(4-Pyrrolidin-1-yl-phenylcarbamoyl)-piperidin-4-yl]-quinazolin-7-yloxy}-propyl)-piperazine-1-carboxylic acid dimethylamide]",8.40

# Second part, the molecule after the results:
row,pIC50,Compound
1,9.40,"CNC(=O)C1CCN(c2ccc3c(C4CCN(C(=O)Nc5ccc(N6CCCC6)cc5)CC4)ncnc3c2)CC1 [Example 155, 4-[7-(4-Carboxylic acid methylamide-piperidin-1-yl)-quinazolin-4-yl]-piperidine-1-carboxylic acid (4-pyrrolidin-1-yl-phenyl)-amide]"
2,9.00,"O=C(Nc1ccc(N2CCCC2)cc1)N1CCC(c2ncnc3cc(N4CCN(CCO)CC4)ccc23)CC1 [Compound 185, 4-{7-[4-(2-Hydroxy-ethyl)-piperazin-1-yl]-quinazolin-4-yl}-piperidine-1-carboxylic acid (4-pyrrolidin-1-yl-phenyl)-amide]"
3,8.40,"O=C(Nc1ccc(N2CCCC2)cc1)N1CCC(c2ncnc3cc(N4CCNC4=O)ccc23)CC1 [Compound 178, 4-[7-(2-Oxo-imidazolidin-1-yl)-quinazolin-4-yl]-piperidine-1-carboxylic acid (4-pyrrolidin-1-yl-phenyl)-amide]"
4,8.70,"O=C(Nc1ccc(N2CCCC2)cc1)N1CCC(c2ncnc3cc(N4CCC4)ccc23)CC1 [Example 173, 4-(7-Azetidin-1-yl-quinazolin-4-yl)-piperidine-1-carboxylic acid (4-pyrrolidin-1-yl-phenyl)-amide]"
5,7.96,"O=C(Nc1ccc(N2CCCC2)cc1)N1CCC(c2ncnc3cc(N4CCN(c5ccncc5)CC4)ccc23)CC1 [Compound 194, 4-[7-(4-Pyridin-4-yl-piperazin-1-yl)-quinazolin-4-yl]-piperidine-1-carboxylic acid (4-pyrrolidin-1-yl-phenyl)-amide]"
6,7.51,"O=C(Nc1ccc(N2CCOCC2)cc1)N1CCC(c2ncnc3cc(N4CCNCC4)ccc23)CC1 [Example 140, 4-(7-Piperazin-1-yl-quinazolin-4-yl)-piperidine-1-carboxylic acid (4-morpholin-4-yl-phenyl)-amide]"
7,7.09,"O=C(Nc1ccc(N2CCCC2)cc1)N1CCC(c2ncnc3cc(N4CCC(F)CC4)ccc23)CC1 [Compound 195, 4-[7-(4-Fluoro-piperidin-1-yl)-quinazolin-4-yl]-piperidine-1-carboxylic acid (4-pyrrolidin-1-yl-phenyl)-amide]"
8,8.52,"CS(=O)(=O)N1CCN(c2ccc3c(C4CCN(C(=O)Nc5ccc(N6CCCC6)cc5)CC4)ncnc3c2)CC1 [Example 167, 4-[7-(4-Methanesulfonyl-piperazin-1-yl)-quinazolin-4-yl]-piperidine-1-carboxylic acid (4-pyrrolidin-1-yl-phenyl)-amide]"
9,7.40,"CCNC(=O)N1CCN(c2ccc3c(C4CCN(C(=O)Nc5ccc(N6CCCC6)cc5)CC4)ncnc3c2)CC1 [Compound 199, 4-{4-[1-(4-Pyrrolidin-1-yl-phenylcarbamoyl)-piperidin-4-yl]-quinazolin-7-yl}-piperazine-1-carboxylic acid ethylamide]"
10,8.52,"CN(C)[C@@H]1CCN(c2ccc3c(C4CCN(C(=O)Nc5ccc(N6CCCC6)cc5)CC4)ncnc3c2)C1 [Example 149, (R)-4-[7-(3-Dimethylamino-pyrrolidin-1-yl)-quinazolin-4-yl]-piperidine-1-carboxylic acid (4-pyrrolidin-1-yl-phenyl)-amide]"
11,9.00,"O=C(Nc1ccc(N2CCCC2)cc1)N1CCC(c2ncnc3cc(N4CCN(c5ccccn5)CC4)ccc23)CC1 [Compound 192, 4-[7-(4-Pyridin-2-yl-piperazin-1-yl)-quinazolin-4-yl]-piperidine-1-carboxylic acid (4-pyrrolidin-1-yl-phenyl)-amide]"
